Measured values published in patent US8222404B2, “[1,2,4]Thiadiazin-3-yl acetic acid compound and methods of making the acetic acid compound” (Anadys Pharmaceuticals, Inc., priority 2008, dated 2012).

System: HCV Huh-luc/neo-ET replicon cells
Assay: Luciferase-Based HCV Replicon Assay (EC50 (1b))
Type: cell-based
Settings: Hepatitis C virus, 72 hours exposure, luciferase activity
Outline: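 EC50 (1b) derived from % inhibition of luciferase signal relative to untreated cells, background set by 100 nM BILN-2061 (protease inhibitor). Triplicate dose series added to replicon cells 24 h post-seeding; luminescence measured after 72 h compound exposure.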

| Structure (SMILES) | EC50 |
| --- | --- |
| CS(=O)(=O)NCc1csc2c1S(=O)(=O)N=C(C1=C(O)[C@@H]3[C@H]4CC[C@H](C4)[C@@H]3N(Cc3ccc(F)cc3Cl)C1=O)N2 [Example 94, N-{3-[(1R,2S,7R,8S)-3-(2-Chloro-4-fluoro-benzyl)-6-hydroxy-4-oxo-3-aza-tricyclo[6.2.1.0^2,7]undec-5-en-5-yl]-1,1-dioxo-1,4-dihydro-1λ^6-thieno[2,3-e][1,2,4]thiadiazin-7-ylmethyl}-methanesulfonamide] | 20 to 100 nM |
| CS(=O)(=O)NCc1csc2c1S(=O)(=O)N=C(C1=C(O)[C@@H]3[C@@H]4CC[C@@H](C4)[C@@H]3N(Cc3ccc(F)c(Cl)c3)C1=O)N2 [Example 95, N-{3-[(1 S,2S,7R,8R)-3-(3-Chloro-4-fluoro-benzyl)-6-hydroxy-4-oxo-3-aza-tricyclo[6.2.1.0^2,7]undec-5-en-5-yl]-1,1-dioxo-1,4-dihydro-1λ^6-thieno[2,3-e][1,2,4]thiadiazin-7-ylmethyl}-methanesulfonamide] | 20 to 100 nM |
| CS(=O)(=O)NCc1csc2c1S(=O)(=O)N=C(C1=C(O)[C@@H]3C4CCC(CC4)[C@@H]3N(Cc3ccc(F)cc3Cl)C1=O)N2 [Example 96, N-{3-[(2S,7R)-3-(2-Chloro-4-fluoro-benzyl)-6-hydroxy-4-oxo-3-aza-tricyclo[6.2.2.0^2,7]dodec-5-en-5-yl]-1,1-dioxo-1,4-dihydro-1λ^6-thieno[2,3-e][1,2,4]thiadiazin-7-ylmethyl}-methanesulfonamide] | 20 to 100 nM |
| CS(=O)(=O)NCc1csc2c1S(=O)(=O)N=C(C1=C(O)[C@@H]3[C@H]4CC[C@H](C4)[C@@H]3N(C3CCCCC3)C1=O)N2 [Example 97, N-[3-((1R,2S,7R,8S)-3-Cyclohexyl-6-hydroxy-4-oxo-3-aza-tricyclo[6.2.1.0^2,7]undec-5-en-5-yl)-1,1-dioxo-1,4-dihydro-1λ^6-thieno[2,3-e][1,2,4]thiadiazin-7-ylmethyl]-methanesulfonamide] | 100 to 1000 nM |
| CS(=O)(=O)NCc1csc2c1S(=O)(=O)N=C(C1=C(O)[C@@H]3[C@@H]4CC[C@@H](C4)[C@@H]3N(C3CCCCC3)C1=O)N2 [Example 98, N-[3-((1S,2S,7R,8R)-3-Cyclohexyl-6-hydroxy-4-oxo-3-aza-tricyclo[6.2.1.0^2,7]undec-5-en-5-yl)-1,1-dioxo-1,4-dihydro-1λ^6-thieno[2,3-e][1,2,4]thiadiazin-7-ylmethyl]-methanesulfonamide] | 100 to 1000 nM |
| CS(=O)(=O)NCc1csc2c1S(=O)(=O)N=C(C1=C(O)[C@@H]3CCC[C@@H]3N(C3CCCCC3)C1=O)N2 [Example 99, (4aR,7aS)-N-[3-(1-Cyclohexyl-4-hydroxy-2-oxo-2,4a,5,6,7,7a-hexahydro-1H-[1]pyrindin-3-yl)-1,1-dioxo-1,4-dihydro-1λ^6-thieno[2,3-e][1,2,4]thiadiazin-7-ylmethyl]-methanesulfonamide] | 100 to 1000 nM |
| CS(=O)(=O)NCc1csc2c1S(=O)(=O)N=C(C1=C(O)[C@@H]3[C@H]4CC[C@H](C4)[C@@H]3N(CC3CCCCC3)C1=O)N2 [Example 101, N-[3-((1R,2S,7R,8S)-3-Cyclohexylmethyl-6-hydroxy-4-oxo-3-aza-tricyclo[6.2.1.0^2,7]undec-5-en-5-yl)-1,1-dioxo-1,4-dihydro-1λ^6-thieno[2,3-e][1,2,4]thiadiazin-7-ylmethyl]-methanesulfonamide] | 20 to 100 nM |
| CS(=O)(=O)NCc1csc2c1S(=O)(=O)N=C(C1=C(O)[C@@H]3[C@@H]4CC[C@@H](C4)[C@@H]3N(CC3CCCCC3)C1=O)N2 [Example 102, N-[3-((1S,2S,7R,8R)-3-Cyclohexylmethyl-6-hydroxy-4-oxo-3-aza-tricyclo[6.2.1.0^2,7]undec-5-en-5-yl)-1,1-dioxo-1,4-dihydro-1λ^6-thieno[2,3-e][1,2,4]thiadiazin-7-ylmethyl]-methanesulfonamide] | 20 to 100 nM |
| CS(=O)(=O)NCc1csc2c1S(=O)(=O)N=C(C1=C(O)[C@@H]3CCC[C@@H]3N(CC3CCCCC3)C1=O)N2 [Example 103, (4aR,7aS)-N-[3-(1-Cyclohexylmethyl-4-hydroxy-2-oxo-2,4a,5,6,7,7a-hexahydro-1H-[1]pyrindin-3-yl)-1,1-dioxo-1,4-dihydro-1λ^6-thieno[2,3-e][1,2,4]thiadiazin-7-ylmethyl]-methanesulfonamide] | 20 to 100 nM |
| CS(=O)(=O)NCc1csc2c1S(=O)(=O)N=C(C1=C(O)[C@@H]3[C@H]4CC[C@H](C4)[C@@H]3N(CCC3CC3)C1=O)N2 [Example 106, N-{3-[(1R,2S,7R,8S)-3-(2-Cyclopropyl-ethyl)-6-hydroxy-4-oxo-3-aza-tricyclo[6.2.1.0^2,7]undec-5-en-5-yl]-1,1-dioxo-1,4-dihydro-1λ^6-thieno[2,3-e][1,2,4]thiadiazin-7-ylmethyl}-methanesulfonamide] | 5 to 20 nM |
| CS(=O)(=O)NCc1csc2c1S(=O)(=O)N=C(C1=C(O)[C@@H]3[C@@H]4CC[C@@H](C4)[C@@H]3N(CCC3CC3)C1=O)N2 [Example 107, N-{3-[(1S,2S,7R,8R)-3-(2-Cyclopropyl-ethyl)-6-hydroxy-4-oxo-3-aza-tricyclo[6.2.1.0^2,7]undec-5-en-5-yl]-1,1-dioxo-1,4-dihydro-1λ^6-thieno[2,3-e][1,2,4]thiadiazin-7-ylmethyl}-methanesulfonamide] | 20 to 100 nM |
| CS(=O)(=O)NCc1csc2c1S(=O)(=O)N=C(C1=C(O)C3C4CCC(CC4)C3N(CCC3CC3)C1=O)N2 (stereo not shown) [Example 108, N-{3-[3-(2-Cyclopropyl-ethyl)-6-hydroxy-4-oxo-3-aza-tricyclo[6.2.2.0^2,7]dodec-5-en-5-yl]-1,1-dioxo-1,4-dihydro-1λ^6-thieno[2,3-e][1,2,4]thiadiazin-7-ylmethyl}-methanesulfonamide] | 5 to 20 nM |
| CC1(CCN2C(=O)C(C3=NS(=O)(=O)c4c(CNS(C)(=O)=O)csc4N3)=C(O)C3C4CCC(CC4)C32)CC1 (stereo not shown) [Example 109, N-(3-{6-Hydroxy-3-[2-(1-methyl-cyclopropyl)-ethyl]-4-oxo-3-aza-tricyclo[6.2.2.0^2,7]dodec-5-en-5-yl]-1,1-dioxo-1,4-dihydro-1λ^6-thieno[2,3-e][1,2,4]thiadiazin-7-ylmethyl)-methanesulfonamide] | 5 to 20 nM |
| CS(=O)(=O)NCc1csc2c1S(=O)(=O)N=C(C1=C(O)[C@@H]3CCC[C@@H]3N(Cc3ccc(F)cc3)C1=O)N2 [Example 110, (4aR,7aS)-N-{3-[1-(4-Fluoro-benzyl)-4-hydroxy-2-oxo-2,4a,5,6,7,7a-hexahydro-1H-[1]pyrindin-3-yl]-1,1-dioxo-1,4-dihydro-1λ^6-thieno[2,3-e][1,2,4]thiadiazin-7-ylmethyl}-methanesulfonamide] | 5 to 20 nM |
| CS(=O)(=O)NCc1csc2c1S(=O)(=O)N=C(C1=C(O)[C@@H]3CCC[C@@H]3N(Cc3ccc(F)cc3Cl)C1=O)N2 [Example 111, (4aR,7aS)-N-{3-[1-(2-Chloro-4-fluoro-benzyl)-4-hydroxy-2-oxo-2,4a,5,6,7,7a-hexahydro-1H-[1]pyrindin-3-yl]-1,1-dioxo-1,4-dihydro-1λ^6-thieno[2,3-e][1,2,4]thiadiazin-7-ylmethyl}-methanesulfonamide] | 100 to 1000 nM |
| CS(=O)(=O)NCc1csc2c1S(=O)(=O)N=C(C1=C(O)[C@@H]3CCC[C@@H]3N(Cc3ccc(F)cc3F)C1=O)N2 [Example 112, (4aR,7aS)-N-{3-[1-(2,4-Difluoro-benzyl)-4-hydroxy-2-oxo-2,4a,5,6,7,7a-hexahydro-1H-[1]pyrindin-3-yl]-1,1-dioxo-1,4-dihydro-1λ^6-thieno[2,3-e][1,2,4]thiadiazin-7-ylmethyl}-methanesulfonamide] | 20 to 100 nM |
| CS(=O)(=O)NCc1csc2c1S(=O)(=O)N=C(C1=C(O)[C@@H]3CCC[C@@H]3N(Cc3ccc(F)c(Cl)c3)C1=O)N2 [Example 113, (4aR,7aS)-N-{3-[1-(3-Chloro-4-fluoro-benzyl)-4-hydroxy-2-oxo-2,4a,5,6,7,7a-hexahydro-1H-[1]pyrindin-3-yl]-1,1-dioxo-1,4-dihydro-1λ^6-thieno[2,3-e][1,2,4]thiadiazin-7-ylmethyl}-methanesulfonamide] | 20 to 100 nM |
| COc1cc(CN2C(=O)C(C3=NS(=O)(=O)c4c(CNS(C)(=O)=O)csc4N3)=C(O)[C@@H]3CCC[C@@H]32)ccc1F [Example 114, (4aR,7aS)-N-{3-[1-(4-Fluoro-3-methoxy-benzyl)-4-hydroxy-2-oxo-2,4a,5,6,7,7a-hexahydro-1H-[1]pyrindin-3-yl]-1,1-dioxo-1,4-dihydro-1λ^6-thieno[2,3-e][1,2,4]thiadiazin-7-ylmethyl}-methanesulfonamide] | 100 to 1000 nM |
| CS(=O)(=O)NCc1csc2c1S(=O)(=O)N=C(C1=C(O)[C@@H]3CCC[C@@H]3N(Cc3ccc(F)c(F)c3F)C1=O)N2 [Example 115, (4aR,7aS)-N-{3-[4-Hydroxy-2-oxo-1-(2,3,4-trifluoro-benzyl)-2,4a,5,6,7,7a-hexahydro-1H-[1]pyrindin-3-yl]-1,1-dioxo-1,4-dihydro-1λ^6-thieno[2,3-e][1,2,4]thiadiazin-7-ylmethyl}-methanesulfonamide] | 100 to 1000 nM |
| CS(=O)(=O)NCc1csc2c1S(=O)(=O)N=C(C1=C(O)[C@@H]3CCC[C@@H]3N(Cc3ccccc3)C1=O)N2 [Example 124, (4aR,7aS)-N-[3-(1-Benzyl-4-hydroxy-2-oxo-2,4a,5,6,7,7a-hexahydro-1H-[1]pyrindin-3-yl)-1,1-dioxo-1,4-dihydro-1λ^6-thieno[2,3-e][1,2,4]thiadiazin-7-ylmethyl]-methanesulfonamide] | 5 to 20 nM |
| CS(=O)(=O)NCc1csc2c1S(=O)(=O)N=C(C1=C(O)[C@@H]3CCC[C@@H]3N(Cc3ccc(F)c(F)c3)C1=O)N2 [Example 125, (4aR,7aS)-N-{3-[1-(3,4-Difluoro-benzyl)-4-hydroxy-2-oxo-2,4a,5,6,7,7a-hexahydro-1H-[1]pyrindin-3-yl]-1,1-dioxo-1,4-dihydro-1λ^6-thieno[2,3-e][1,2,4]thiadiazin-7-ylmethyl}-methanesulfonamide] | 20 to 100 nM |
| Cc1cc(CN2C(=O)C(C3=NS(=O)(=O)c4c(CNS(C)(=O)=O)csc4N3)=C(O)[C@@H]3CCC[C@@H]32)ccc1F [Example 126, (4aR,7aS)-N-{3-[1-(4-Fluoro-3-methyl-benzyl)-4-hydroxy-2-oxo-2,4a,5,6,7,7a-hexahydro-1H-[1]pyrindin-3-yl]-1,1-dioxo-1,4-dihydro-1λ^6-thieno[2,3-e][1,2,4]thiadiazin-7-ylmethyl}-methanesulfonamide] | 20 to 100 nM |
